{
  "source": "patent US5844000A",
  "about": "“Propenone oxime ethers and pharmaceutical compositions containing them” (Sanofi, priority 1997, dated 1998)",
  "key": {"[1]": {"test": "Biotransformation: excreted radioactivity (urine and feces) as SR 46349 and metabolites in humans", "type": "in vivo, human", "conditions": "for percentage of excreted radioactivity: urine and feces, excreted (recovered) radioactivity", "method": "Excretion-balance, plasma and blood pharmacokinetics of radioactivity, and clinical safety/tolerance were reported.\nThe capsule was dropped directly in the mouth and swallowed with 150 mL of tap water at about 8:00 AM. Ingestion of the capsule was verified by inspection of the oral cavity of each subject.\nA representative pool of urine was prepared for each subject by mixing aliquots from each collection interval in proportion to the percent of radioactivity present in each collection interval.\nA representative pool of fecal homogenate was prepared for each subject by mixing aliquots from each collection interval in proportion to the percent of radioactivity present in each collection interval.\nMetabolite quantitation was conducted with an HP1090 HPLC system (Hewlett Packard, Wilmington, Del. HPLC eluant was fraction collected (0.33 mL/fraction using a FOXY™ Model 200 fraction collector; Isco, Lincoln, Nebr.). Fractions were mixed with 5 mL of Biofluor cocktail and then counted using a Tri-Carb 2700TR liquid scintillation counter (Packard, Meriden, Conn.).\nSample extraction and HPLC column recoveries were calculated using measured radioactivity in samples, sample extracts and HPLC eluants. Recoveries of 100% were based on the expected amount of radioactivity in a sample prior to extraction or HPLC analysis.\nUrinary and fecal metabolites are expressed as a percentage of the radioactivity in each matrix and as a percentage of excreted (recovered) radioactivity. Values were corrected for total experimental recoveries."}, "5-HT2": {"system": "5-HT2", "conditions": "result in words; U.S. Pat. No. 5,166,416; cited from earlier work"}, "[2]": {"test": "Plasma metabolite profiling in humans", "type": "in vivo, human", "conditions": "result in words; time points up to 48 hr", "method": "(§1) The objective of this study was to quantitate the biotransformation of ^14 C-SR 46349B in humans. Six healthy male volunteers were treated orally with a single 30 mg dose of ^14 C-SR 46349B (corresponding to 35.4 mg of the salified compound), labeled on the C-1 position of the propenyl chain with ^14 C (1.375 MBq). Excretion-balance, plasma and blood pharmacokinetics of radioactivity, and clinical safety/tolerance were reported. Plasma, urine and fecal homogenates were analyzed for quantitation and identification of SR 46349B and metabolites.\nSubjects were fasted overnight prior to the morning of ^14 C-SR 46349B administration. […]\nPools of plasma for each collection time were prepared by mixing equal amounts of plasma from all subjects. This made available enough plasma at each time point to quantitate metabolites. […] Due to low amounts of radioactivity in plasma, five concentrated extracts from the same time point were combined. […] Pools for each collection time were analyzed in triplicate.\nMetabolite quantitation was conducted with an HP1090 HPLC system (Hewlett Packard, Wilmington, Del. HPLC eluant was fraction collected (0.33 mL/fraction using a FOXY™ Model 200 fraction collector; Isco, Lincoln, Nebr.). Fractions were mixed with 5 mL of Biofluor cocktail and then counted using a Tri-Carb 2700TR liquid scintillation counter (Packard, Meriden, Conn.). […]"}, "[3]": {"test": "Human pharmacokinetics: plasma concentration of SR 46349 (HPLC-UV) after single oral dose of 14C-SR 46349B", "type": "in vivo", "method": "as §1\n(§2) Subjects were fasted overnight prior to the morning of ^14 C-SR 46349B administration. All subjects received a single oral 30 mg dose of ^14 C-SR 46349B (corresponding to 35.4 mg of the […] compound) in a single gelatin capsule. The capsule was dropped directly in the mouth and swallowed with 150 mL of tap water at about 8:00 AM. Ingestion of the capsule was verified by inspection of the oral cavity of each subject.\n(§3) Blood samples were obtained at 0, 0.5, 1, 1.5, 2, 2.5, 3, 4, 6, 8, 10, 12, 16, 24, 36, 48, 72, 96, 120, 144, 168, 192, 216, 240, 264, 288 and 312 hr after dosing. For each sample, approximately 7 mL of blood (22 mL at 2, 3, 4, 8, 12, 24 and 48 hrs after dosing) was drawn into polypropylene collection tubes containing lithium heparin (as an anticoagulant). Following the removal of 1 mL of blood for radiocarbon analysis, samples were centrifuged (within 30 min) at 2000-3000×g for 10 min and the plasma transferred into polypropylene transport tubes. All samples were stored frozen (≤-18° C.) until analysis.\nThe concentration of SR 46349 in plasma samples was determined using a validated HPLC method with UV detection at 320 nm. […] The samples were dried at room temperature and resuspended in 0.15 mL of mobile phase and 0.05 mL was analyzed. […]\nUnknown concentrations of SR 46349 were quantified by reference to a 1/y^2 weighted regression analysis of the peak-area ratio (SR 46349/internal standard) versus concentration of the calibration curve standards. […]\nModel-independent pharmacokinetic parameters for plasma concentrations of SR 46349 were calculated for each subject. The maximum observed plasma concentration (Cmax) of SR 46349 and its corresponding time (tmax) were determined by visual inspection of individual concentration-time profiles. Half-life (t 1/2) was calculated from the ratio of ln(2)/λZ, where λZ is the regressed slope of the terminal phase. The area under the plasma concentration of SR 46349-versus-time-curves (AUC(0-t)) was calculated using the trapezoidal rule. AUC was calculated for the sum of AUC(0-t) and Cp(1)/λZ wherein Cp(1) is the last measurable concentration time point. […]"}, "[4]": {"test": "Human pharmacokinetics: plasma radioactivity after single oral dose of 14C-SR 46349B", "type": "in vivo", "method": "as §1, §2, §3\nAliquots of plasma and urine samples were added directly to Ready-Safe scintillant (9 mL), hand shaken for a few seconds and left for at least 2 hours prior to counting. Aliquots of fecal homogenates were weighed in a Combusto-Cone fitted with a CombustoPad. The samples were allowed to dry overnight before combustion in a Packard Sample Oxidizer, Model 307 (Meriden, Conn.). Carbo-Sorb and Permafluor E^+ were used as scintillants (10 mL). Samples mixed with scintillant were left for at least 4 hours prior to counting. Radioactivity assays were performed with a Packard Instruments Tri-Carb, Model 1600TR Liquid Scintillation System. The LOQ was set at 12 cpm above background."}, "[5]": {"test": "Fecal excretion and fecal metabolite profiling in humans", "type": "in vivo, human", "conditions": "up to 276 hr post-dose, % of administered dose", "method": "as §1\n(§4) Subjects were fasted overnight prior to the morning of ^14 C-SR 46349B administration. All subjects received a single oral 30 mg dose of ^14 C-SR 46349B (corresponding to 35.4 mg of the unsalified compound) in a single gelatin capsule. […]\n(§5) Aliquots of plasma and urine samples were added directly to Ready-Safe scintillant (9 mL), hand shaken for a few seconds and left for at least 2 hours prior to counting. […] Radioactivity assays were performed with a Packard Instruments Tri-Carb, Model 1600TR Liquid Scintillation System. […]\nA representative pool of fecal homogenate was prepared for each subject by mixing aliquots from each collection interval in proportion to the percent of radioactivity present in each collection interval. Pools were prepared to represent approximately 95% of total collected fecal radioactivity. […]"}, "[6]": {"test": "Urinary excretion and urinary metabolite profiling in humans", "type": "in vivo, human", "conditions": "up to 336 hr post-dose, % of administered dose", "method": "as §1, §4, §5\nA representative pool of urine was prepared for each subject by mixing aliquots from each collection interval in proportion to the percent of radioactivity present in each collection interval. Pools were prepared to represent approximately 95% of total collected urinary radioactivity. […]"}},
  "note": "“Also recorded” adds a separate entry of the source.",
  "data": [
    {"smiles": "C[N+](C)([O-])CCON=C(/C=C/c1ccc(O)cc1)c1ccccc1F", "note": "[H22 & H23]", "values": [
      {"measurement": "percentage of excreted radioactivity", "setting": "[1]", "value": "approximately 23%"}
    ]},
    {"smiles": "CN(C)CCON=C(/C=C/c1ccc(O)cc1)c1ccccc1F", "note": "[SR 46349B, Trans 1-N,N-dimethylaminoethoxyimino 1-(2-fluorophenyl)-3-(4-hydroxyphenyl)2-propene hemifumarate]", "values": [
      {"measurement": "5-HT2 antagonist activity", "setting": "5-HT2", "value": "potent 5-HT2 antagonist"},
      {"measurement": "plasma concentration compared with any single metabolite", "setting": "[2]", "value": "higher than any single metabolite, except at the 48 hr time point"}
    ]},
    {"smiles": "CN(C)CCON=C(/C=C/c1ccc(O)cc1)c1ccccc1F", "note": "[SR 46349]", "values": [
      {"measurement": "half-life", "setting": "[3]; human, po, 30 mg, single oral 30 mg, mean (±SD), read-out: terminal elimination half-life of SR 46349 (converted)", "value": "~23", "unit": "h"},
      {"measurement": "Cmax", "setting": "[3]; human, single oral 30 mg 14C-SR 46349B, healthy male volunteers, capsule, fasted, read-out: Cmax of SR 46349 in plasma, mean (±SD)", "value": 0.05, "unit": "µg/mL"},
      {"measurement": "AUC", "setting": "[3]; human, single oral 30 mg, read-out: mean plasma AUC for SR 46349 (±SD), as restated in the discussion", "value": 1.2, "unit": "µg·h/mL"},
      {"measurement": "terminal elimination half-life of SR 46349", "setting": "[3]; single oral 30 mg, mean (±SD)", "value": "22.9 (±7.3) hr"},
      {"measurement": "extent and pathways of metabolism", "setting": "[1]; result in words, human", "value": "extensively metabolized; also recorded: N-oxidation, N-demethylation, sulfation and glucuronidation; also recorded: oxidation of SR 46349 (N-oxidation and N-demethylation) appears to be the major mechanism of metabolic clearance"},
      {"measurement": "percentage of excreted radioactivity", "setting": "[1]", "value": "approximately 6%"},
      {"measurement": "plasma concentration compared with any single metabolite", "setting": "[2]", "value": "always higher than any individual metabolite"}
    ]},
    {"smiles": "CN(C)CCO/N=[14C](/C=C/c1ccc(O)cc1)c1ccccc1F", "note": "[^14 C-SR 46349B]", "values": [
      {"measurement": "maximal plasma concentrations of radioactivity relative to plasma concentrations of SR 46349", "setting": "[4]; at similar tmax values, radioactivity / SR 46349", "value": "approximately 3 times"},
      {"measurement": "AUC of plasma radioactivity relative to mean plasma AUC for SR 46349", "setting": "[4]; radioactivity / SR 46349", "value": "approximately 11 times"},
      {"measurement": "Cmax of plasma radioactivity, mean (±SD)", "setting": "[4]; single oral 30 mg 14C-SR 46349B, total radioactivity", "value": "0.16 (±0.02) mg eq/L"},
      {"measurement": "AUC of plasma radioactivity, mean (±SD)", "setting": "[4]; single oral 30 mg, total radioactivity", "value": "13.7 (±2. 1) mg eq.circle-solid.hr/L"},
      {"measurement": "cumulative fecal excretion of radioactivity, mean (±SD)", "setting": "[5]", "value": "21.6 (±3.5) %"},
      {"measurement": "cumulative fecal excretion of radioactivity, range", "setting": "[5]; range over subjects", "value": "16.4 to 26.5", "unit": "%"},
      {"measurement": "cumulative urinary excretion of radioactivity, mean (±SD)", "setting": "[6]", "value": "70.3 (±4.6) %"},
      {"measurement": "cumulative urinary excretion of radioactivity, range", "setting": "[6]; range over subjects", "value": "63.1 to 77.1", "unit": "%"}
    ]}
  ]
}
